Assay [1] deals with peptide-specific T cell cultures. The assay is described as follows: T cell phenotyping and intracellular cytokine staining (flow cytometry). The format is cell-based, human. On the set-up: key: +: cytokine: Immunogenicity of the peptide shown by intracellular cytokine staining (IFN-gamma, TNF-alpha). The following applies: IFN-gamma, TNF-alpha.
Assay [2] concerns short-term antigen-specific T cell lines generated from PBMCs. Description: Interferon-γ ELISpot assay on short-term T cell lines. The assay is classed as cell-based, human. On the set-up: key: +: ELISPOT: Immungenicity of the peptide shown by IFN-gamma ELISPOT analysis; * Highlights data from published resources; +*: * Highlights data from published resources.

This is an account of results in patent publication US20260240975A1, “VALIDATED HPV16-DERIVED S[…]” (Deutsches Krebsforschungszentrum Stiftung des öffentlichen …, priority 2023, published 2026).

In the case of “3 (TIHDIILQCVY; Human papillomavirus 16) [compound 3]”, in assay [1] (HLA restriction A01), the cytokine entry was “+”. Besides, in assay [2] (HLA restriction A01), the ELISpot result was “+”.
Regarding “4 (YGVCDKCLKFY; Human papillomavirus 16) [compound 4]”, the cytokine result in assay [1] (HLA restriction A01) is “+”. Besides, the ELISpot result in assay [2] (HLA restriction A01) is listed as “+”.
Regarding “5 (EYRYYCYSLY; Human papillomavirus 16) [compound 5]”, the cytokine result in assay [1] (HLA restriction A01) is “+”. Besides, the ELISpot result in assay [2] (HLA restriction A01) is reported as “+”.
Regarding “6 (DLQPETTDLY; Human papillomavirus 16) [compound 6]”, in assay [1] (HLA restriction A01), the cytokine entry is listed as “+”. Further, in assay [2] (HLA restriction A01), the ELISpot entry is on record as “+”.
For “7 (TTDLYCYEQ; Human papillomavirus 16) [compound 7]”, in assay [1] (HLA restriction A01), the cytokine entry is given as “+”. Further, the ELISpot result in assay [2] (HLA restriction A01) is “+”.
On to “24 (LLMGTLGIVC; Human papillomavirus 16) [compound 24]”, for which, in assay [1] (HLA restriction A02), the cytokine entry is on record as “+”. In assay [2] (HLA restriction A02), the ELISpot entry was “+”.
For the substance “39 (FAFRDLCIVYR; Human papillomavirus 16) [compound 39]”, in assay [1] (HLA restriction A11), the cytokine entry is listed as “+”. In assay [2] (HLA restriction A11), the ELISpot entry is given as “+”.
In the case of “40 (AFRDLCIVYR; Human papillomavirus 16) [compound 40]”, the cytokine result in assay [1] (HLA restriction A11) was “+”. Moreover, the ELISpot result in assay [2] (HLA restriction A11) was “+”.
Regarding “41 (IVYRDGNPY; Human papillomavirus 16) [compound 41]”, the cytokine entry in assay [1] (HLA restriction A11) is listed as “+”. The ELISpot result in assay [2] (HLA restriction A11) was “+”.
On to “42 (NPYAVCDKCLK; Human papillomavirus 16) [compound 42]”, for which, in assay [1] (HLA restriction A11), the cytokine result was “+”. Besides, the ELISpot entry in assay [2] (HLA restriction A11) was “+”.
With “44 (AVCDKCLKFYS; Human papillomavirus 16) [compound 44]”, the cytokine result in assay [1] (HLA restriction A11) is “+”. Moreover, in assay [2] (HLA restriction A11), the ELISpot result is on record as “+”.
In the case of “45 (VCDKCLKFYSK; Human papillomavirus 16) [compound 45]”, the cytokine result in assay [1] (HLA restriction A11) is on record as “+”. The ELISpot result in assay [2] (HLA restriction A11) is “+”.
On to “46 (GIVCPICSQK; Human papillomavirus 16) [compound 46]”, for which the cytokine entry in assay [1] (HLA restriction A03) is “+”. Moreover, in assay [2] (HLA restriction A03), the ELISpot result was “+”.
In the case of “55 (DLLIRCINCQK; Human papillomavirus 16) [compound 55]”, the cytokine entry in assay [1] (HLA restriction A11) is listed as “+”. The ELISpot result in assay [2] (HLA restriction A11) was “+”.
For “66 (PDRAHYNIVTF; Human papillomavirus 16) [compound 66]”, the cytokine result in assay [1] (HLA restriction A24) is reported as “+”. In addition, the ELISpot result in assay [2] (HLA restriction A24) is “+”.
Take “67 (DRAHYNIVTF; Human papillomavirus 16) [compound 67]”: the cytokine result in assay [1] (HLA restriction A24) was “+”. Further, the ELISpot result in assay [2] (HLA restriction A24) is recorded as “+”.
For “68 (HYNIVTFCC; Human papillomavirus 16) [compound 68]”, the cytokine result in assay [1] (HLA restriction A24) is recorded as “+”. For the same substance, the ELISpot entry in assay [2] (HLA restriction A24) is on record as “+”.
For the substance “71 (HYCYSLYGTTL; Human papillomavirus 16) [compound 71]”, in assay [1] (HLA restriction A24), the cytokine result is given as “+”. For the same substance, the ELISpot entry in assay [2] (HLA restriction A24) is “+”.
As for “76 (RPRKLPQL; Human papillomavirus 16) [compound 76]”, the cytokine entry in assay [1] (HLA restriction B07) is reported as “+”. Moreover, the ELISpot entry in assay [2] (HLA restriction B07) was “+”.
For “78 (RPRKLPQLCTE; Human papillomavirus 16) [compound 78]”, in assay [1] (HLA restriction B07), the cytokine entry is reported as “+”. The ELISpot result in assay [2] (HLA restriction B07) is recorded as “+”.
In the case of “80 (NIRGRWTGRCM; Human papillomavirus 16) [compound 80]”, the cytokine entry in assay [1] (HLA restriction B07) is listed as “+”. The ELISpot entry in assay [2] (HLA restriction B07) and in assay [2] (HLA restriction B15) was “+” in each case.
On to “81 (EPDRAHYNIV; Human papillomavirus 16) [compound 81]”, for which the cytokine entry in assay [1] (HLA restriction B07) is reported as “+”. The ELISpot result in assay [2] (HLA restriction B07) is on record as “+”.
With “85 (KQQLLRREVY; Human papillomavirus 16) [compound 85]”, in assay [1] (HLA restriction B15), the cytokine result is listed as “+”. The ELISpot entry in assay [2] (HLA restriction B15) is reported as “+”.
As for “86 (AFRDLCIVY; Human papillomavirus 16) [compound 86]”, the cytokine result in assay [1] (HLA restriction B15) is “+”. Moreover, the ELISpot entry in assay [2] (HLA restriction B15) is recorded as “+”.
For the substance “88 (GQAEPDRAHY; Human papillomavirus 16) [compound 88]”, in assay [1] (HLA restriction B15), the cytokine entry is “+”. The ELISpot entry in assay [2] (HLA restriction B15) is “+”.
Consider “95 (YRHYCYSVY; Human papillomavirus 16) [compound 95]”, for which the cytokine result in assay [1] (HLA restriction B15) is reported as “+”. Further, the ELISpot result in assay [2] (HLA restriction B15) is on record as “+”.
Take “100 (CLKFYSKISEY; Human papillomavirus 16) [compound 100]”: the ELISpot result in assay [2] (HLA restriction B15) is given as “+”.
The same measure, in the same setting: the same measure for “101 (FYSKISEY; Human papillomavirus 16) [compound 101]”: “+”; for “104 (SEYRHYCY; Human papillomavirus 16) [compound 104]”: “+”; for “105 (QQYNKPLCDL; Human papillomavirus 16) [compound 105]”: “+”.
The same measure, in the same setting: the same measure for “106 (CQKPLCPEE; Human papillomavirus 16) [compound 106]”: “+”.
On the same count and under the same terms, the same measure for “107 (KQRHLDKKQRF; Human papillomavirus 16) [compound 107]”: “+”.
In the case of “108 (KQRFHNIRGRW; Human papillomavirus 16) [compound 108]”, in assay [1] (HLA restriction B15), the cytokine entry was “+”. Further, the ELISpot result in assay [2] (HLA restriction B15) is “+”.
As for “109 (TLHEYMLDL; Human papillomavirus 16) [compound 109]”, the ELISpot entry in assay [2] (HLA restriction B15) is given as “+”.
On the same count and under the same terms, the same measure for “110 (GQAEPDRAH; Human papillomavirus 16) [compound 110]”: “+”.
Consider “112 (TTDLYCYEQL; Human papillomavirus 16) [compound 112]”, for which the ELISpot result in assay [2] (HLA restriction A01) is “+”.
On the same count and under the same terms, the same measure for “113 (SEYRHYCY; Human papillomavirus 16) [compound 113]”: “+”; for “114 (IHEIILECVY; Human papillomavirus 16) [compound 114]”: “+”.
Turning to “116 (GTTLEQQYNK; Human papillomavirus 16) [compound 116]”, in assay [2] (HLA restriction A03), the ELISpot result is reported as “+”.
In the case of “117 (RHYCYSLY; Human papillomavirus 16) [compound 117]”, the cytokine in assay [1] (HLA restriction A03) is 1. In addition, in assay [2] (HLA restriction A03), the ELISpot result is listed as “+”.
Regarding “119 (HYNIVTFC; Human papillomavirus 16) [compound 119]”, the ELISpot entry in assay [2] (HLA restriction A24) is reported as “+”.
On to “122 (RPRKLPDLCT; Human papillomavirus 16) [compound 122]”, for which, in assay [1] (HLA restriction B07), the cytokine result is reported as “+”. Also, in assay [2] (HLA restriction B07), the ELISpot result is “+”.
Consider “123 (CPDEKQRHL; Human papillomavirus 16) [compound 123]”, for which, in assay [2] (HLA restriction B07), the ELISpot result is listed as “+”.
Regarding “124 (LPQLCTELQT; Human papillomavirus 16) [compound 124]”, the ELISpot entry in assay [2] (HLA restriction B07) is recorded as “+”.
In the case of “126 (KISEYRHY; Human papillomavirus 16) [compound 126]”, the ELISpot entry in assay [2] (HLA restriction B15) was “+”.
Still for that read-out and setting: the same measure for “127 (RGRWTGRCM; Human papillomavirus 16) [compound 127]”: “+”.
Same read-out and setting: the same measure for “128 (AGQAEPDRAHY; Human papillomavirus 16) [compound 128]”: “+”; for “129 (FYSKISEY; Human papillomavirus 16) [compound 129]”: “+”.
